Source: patent publication EP1202975B1, “SUBSTITUTED POLYCYCLIC ARYL AND HETEROARYL PYRAZINONES USEFUL FOR SELECTIVE INHIBITION OF THE COAGULATION CASCADE” (Pharmacia Corporation, priority 1999, dated 2000)
Read-outs that look alike come from different tables or passages of the source. Each block holds one compound with its values, some of them ahead of it.

How the values were obtained:
TF-VIIa = biological target: T1, TF-VIIa (Homo sapiens, UniProt P08709); assay: TF-VIIa Assay; format: biochemical
T1 construct: 2nM recombinant human factor VIIa; purchased American Diagnostica, Greenwich CT; host or cells: soluble TF made in house in E. coli
T1 sequence (P08709 213-466 limits assumed): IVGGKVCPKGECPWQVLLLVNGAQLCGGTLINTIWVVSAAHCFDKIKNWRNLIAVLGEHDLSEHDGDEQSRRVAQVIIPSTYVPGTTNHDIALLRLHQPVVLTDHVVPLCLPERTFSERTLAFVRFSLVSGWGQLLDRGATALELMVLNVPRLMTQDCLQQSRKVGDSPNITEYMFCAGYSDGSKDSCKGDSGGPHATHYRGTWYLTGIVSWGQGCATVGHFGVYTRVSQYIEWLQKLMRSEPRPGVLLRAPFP
T1 sequence (P08709 61-212 limits assumed): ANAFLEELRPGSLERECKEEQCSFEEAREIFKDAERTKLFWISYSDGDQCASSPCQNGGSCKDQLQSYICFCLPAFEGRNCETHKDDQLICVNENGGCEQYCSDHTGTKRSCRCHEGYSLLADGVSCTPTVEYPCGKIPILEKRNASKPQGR
T1 sequence (P13726 33-251 partner limits assumed): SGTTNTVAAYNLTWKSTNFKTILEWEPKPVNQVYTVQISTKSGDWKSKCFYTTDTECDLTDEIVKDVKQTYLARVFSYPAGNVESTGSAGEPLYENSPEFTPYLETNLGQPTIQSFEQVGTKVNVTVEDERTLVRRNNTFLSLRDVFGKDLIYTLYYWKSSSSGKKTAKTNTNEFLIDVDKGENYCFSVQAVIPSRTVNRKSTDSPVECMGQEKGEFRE

Human factor Xa = Human factor Xa (Homo sapiens, UniProt P00742)
Chain of Human factor Xa (P00742 235-488 limits assumed): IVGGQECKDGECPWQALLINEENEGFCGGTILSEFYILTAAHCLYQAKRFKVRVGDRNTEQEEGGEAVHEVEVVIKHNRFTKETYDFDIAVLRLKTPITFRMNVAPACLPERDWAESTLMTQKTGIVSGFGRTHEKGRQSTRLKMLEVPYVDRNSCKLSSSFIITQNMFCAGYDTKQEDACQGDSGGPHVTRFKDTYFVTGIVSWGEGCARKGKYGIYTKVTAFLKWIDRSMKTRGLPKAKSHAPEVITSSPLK
Chain of Human factor Xa (P00742 41-179 limits assumed): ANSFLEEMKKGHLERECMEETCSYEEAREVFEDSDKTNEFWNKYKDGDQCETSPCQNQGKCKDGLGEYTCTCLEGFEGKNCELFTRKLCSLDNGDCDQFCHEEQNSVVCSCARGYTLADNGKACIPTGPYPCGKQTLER

[1] = read-out: IC50 or % Inhibition TF-VIIa (30 µM); cells given as a plain number (IC50)
[2] = cells given as a plain number (IC50); read-out: IC50 or % Inhibition TF-VIIa (30 µM)

Compound: N=C(N)c1ccc(CNC(=O)Cn2c(-c3ccccc3)c(Cl)nc(NCc3ccccc3OC(F)(F)F)c2=O)cc1 [1512-42]
IC50 (TF-VIIa; [1]): 25000 nM | IC50 or % Inhibition Factor Xa (30 µM) (Human factor Xa): 1%

Compound: COc1ccc(-c2c(Cl)nc(NCCc3cccnc3)c(=O)n2CC(=O)NCc2ccc(C(=N)N)cc2)cc1 [1471-40]
IC50 or % Inhibition TF-VIIa (30 µM) (TF-VIIa): 40% | IC50 or % Inhibition Factor Xa (30 µM) (Human factor Xa): 11%

Compound: N=C(N)c1ccc(CNC(=O)Cn2c(-c3cccc(Cl)c3)c(Cl)nc(NCc3ccncc3)c2=O)cc1 [1471-27]
IC50 (TF-VIIa; [1]): 4190 nM | IC50 or % Inhibition Factor Xa (30 µM) (Human factor Xa): 16%

Compound: CC(=O)Nc1cccc(-c2c(Cl)nc(NC(C)C)c(=O)n2CC(=O)NCCc2ccc(C(=N)N)cc2)c1 [Example 68]
IC50 or % Inhibition TF-VIIa (30 µM) (TF-VIIa): 32% | IC50 or % Inhibition Factor Xa (30 µM) (Human factor Xa): 6%

Compound: CCCC(CCC)Nc1nc(Cl)c(-c2ccccc2)n(CC(=O)NCc2ccc(C(=N)N)cc2)c1=O [1517-26]
IC50 (TF-VIIa; [2]): 1800 nM | IC50 or % Inhibition Factor Xa (30 µM) (Human factor Xa): 0%

Compound: COc1ccc(-c2c(Cl)nc(NCCN3CCOCC3)c(=O)n2CC(=O)NCc2ccc(C(=N)N)cc2)cc1 [1471-36]
IC50 or % Inhibition TF-VIIa (30 µM) (TF-VIIa): 11% | IC50 or % Inhibition Factor Xa (30 µM) (Human factor Xa): 6%

Compound: CN(C)CCNc1nc(Cl)c(-c2cccc(N)c2)n(CC(=O)NCc2ccc(C(=N)N)cc2)c1=O [1543-09]
IC50 (TF-VIIa; cells without % sign: IC50; read-out: IC50 or % Inhibition TF-VIIa (30 µM)): 690 nM | IC50 or % Inhibition Factor Xa (30 µM) (Human factor Xa): 12%

Compound: N=C(N)c1ccc(CNC(=O)Cn2c(-c3ccccc3)c(Cl)nc(NC3CCC3)c2=O)cc1 [1507-21]
IC50 (TF-VIIa; [2]): 400 nM | IC50 or % Inhibition Factor Xa (30 µM) (Human factor Xa): 23%

Compound: N=C(N)c1ccc(CNC(=O)Cn2c(-c3cccc(N)c3)c(Cl)nc(NCCCN3CCCC3)c2=O)cc1 [1543-27]
IC50 (TF-VIIa; read-out: IC50 or % Inhibition TF-VIIa (30 µM); cells without % sign: IC50): 380 nM | IC50 or % Inhibition Factor Xa (30 µM) (Human factor Xa): 27%

Compound: N=C(N)c1ccc(CNC(=O)Cn2c(-c3cccc(Cl)c3)c(Cl)nc(NCCN3CCOCC3)c2=O)cc1 [1471-28]
IC50 (TF-VIIa; [1]): 7220 nM | IC50 or % Inhibition Factor Xa (30 µM) (Human factor Xa): 8%

Compound: CC(C)N(C)c1nc(Cl)c(-c2ccccc2)n(CC(=O)NCc2ccc(C(=N)N)cc2)c1=O [1517-31]
IC50 (TF-VIIa; [2]): 9100 nM | IC50 or % Inhibition Factor Xa (30 µM) (Human factor Xa): 0%

Compound: N=C(N)c1ccc(CNC(=O)Cn2c(-c3ccccc3)c(Cl)nc(NCc3ccccc3)c2=O)cc1 [1471-9]
IC50 (TF-VIIa; [2]): 770 nM | IC50 or % Inhibition Factor Xa (30 µM) (Human factor Xa): 29%

Compound: N=C(N)c1ccc(CNC(=O)Cn2c(-c3c(Cl)cccc3Cl)c(Cl)nc(NCCc3ccccc3)c2=O)cc1 [1517-18]
IC50 (TF-VIIa; [1]): 1300 nM | IC50 or % Inhibition Factor Xa (30 µM) (Human factor Xa): 0%

Compound: CN(C)CCCNc1nc(Cl)c(-c2ccccc2)n(CC(=O)NCc2ccc(C(=N)N)cc2)c1=O [1507-47]
IC50 (TF-VIIa; [2]): 17600 nM | IC50 or % Inhibition Factor Xa (30 µM) (Human factor Xa): 19%

Compound: N=C(N)c1ccc(CNC(=O)C(Cc2ccccc2)n2c(-c3ccccc3)c(Cl)nc(NCCc3cccc(Cl)c3)c2=O)cc1 (centres unmarked) [1517-20]
IC50 or % Inhibition TF-VIIa (30 µM) (TF-VIIa): 22% | IC50 or % Inhibition Factor Xa (30 µM) (Human factor Xa): 0%

Compound: N=C(N)c1ccc(CNC(=O)Cn2c(-c3ccccc3)c(Cl)nc(NCCCc3ccccc3)c2=O)cc1 [1512-06]
IC50 (TF-VIIa; [2]): 12600 nM | IC50 or % Inhibition Factor Xa (30 µM) (Human factor Xa): 4%

Now from value to compound:

% Inhibition TF-VIIa (100 µM) (TF-VIIa): 0% | % Inhibition Factor Xa (100 µM) (Human factor Xa): 0%
Compound: O=C(Cn1c(-c2ccc(-c3ccccc3)cc2)c(Cl)nc(NCc2ccncc2)c1=O)NCCc1ccncc1 [Example E-0056]

% Inhibition TF-VIIa (100 µM) (TF-VIIa): 0% | % Inhibition Factor Xa (100 µM) (Human factor Xa): 0%
Compound: O=C(Cn1c(Cc2ccccc2)c(Cl)nc(NCCc2cccc(Cl)c2)c1=O)NCCc1ccncc1 [Example E-0059]

% Inhibition TF-VIIa (100 µM) (TF-VIIa): 0% | % Inhibition Factor Xa (100 µM) (Human factor Xa): 0%
Compound: O=C(Cn1c(-c2ccccc2)c(Cl)nc(NCCc2ccccc2)c1=O)NCCc1ccncc1 [Example E-0010]

% Inhibition TF-VIIa (100 µM) (TF-VIIa): 0% | % Inhibition Factor Xa (100 µM) (Human factor Xa): 0%
Compound: Cc1c(Cl)nc(NCCc2ccccc2)c(=O)n1CC(=O)NCCc1ccncc1 [Example E-0002]

% Inhibition TF-VIIa (100 µM) (TF-VIIa): 0% | % Inhibition Factor Xa (100 µM) (Human factor Xa): 0%
Compound: O=C(Cn1c(-c2ccc3c(c2)OCO3)c(Cl)nc(NCCc2cccc(Cl)c2)c1=O)NCCc1ccncc1 [Example E-0043]

% Inhibition TF-VIIa (100 µM) (TF-VIIa): 0% | % Inhibition Factor Xa (100 µM) (Human factor Xa): 0%
Compound: O=C(Cn1c(CCc2ccccc2)c(Cl)nc(NCCN2CCOCC2)c1=O)NCCc1ccncc1 [Example E-0071]
